Measurements as given in US8937056B2, “Multikinase inhibitors for use in the treatment of cancer” (Eisai R&D Management Co., Ltd., priority 2007, dated 2015).

Key:
[1] = tested on: Cell lines which carried a B-RAF V600E mutation; assay: Cell growth inhibition in solid cancer cell lines (CellTiter-Glo or methylene blue); type: cell-based; conditions: 96 hours, B-RAF V600E mutated cell lines very sensitive
Description: Compounds 091 and 106, were extensively tested in solid cancer cell lines (shown in FIG. 3 for 18 cell lines for compound 091 and 20 cell lines for compound 106). […] Cell growth was assessed using a CellTiter-Glo® Luminescent Cell Viability Assay (Promega) or a methylene blue assay.

MEK1 = MEK1 (Homo sapiens, UniProt Q02750); assay: Biochemical MEK1 assay (ELISA, ERK2-coated plate)
Description: A biochemical MEK1 assay was carried out to investigate whether compounds of formula (I) or (II), e.g., compounds 029, 091, 106 and 114 are MEK1 inhibitors. Biochemical MEK1 inhibition of the compounds was assessed using an ELISA assay. All assays were performed in a 96 well format. A plate coated with ERK2, a substrate protein for MEK1 was used for biochemical MEK1 assay. In a final volume of 40 μL, MEK1 (25 ng) was incubated with 50 mmol/L HEPES, 20 mmol/L MgCl2, 4 mmol/L MnCl2, and 0.5 mmol/L Na3VO4 in the absence or presence of the test compounds. The reaction was initiated by the addition of 1 μmol/L ATP. After incubation for 40 minutes at 30° C., the reaction mixture was discarded and the plate was then washed 4 times with 0.05% Tween20/PBS. Each well was incubated with 100 μL of 1:4000 diluted phospho-ERK1/2 monoclonal antibody (Cell Signaling, MA) for 1.5 hours at room temperature. The antibody was then discarded and the plate was washed 6 times with 0.05% Tween20/PBS. Finally, 100 μL of 1:2000 diluted of HRP conjugated anti-mouse IgG antibody (Cell Signaling, MA) was added. After incubation for 90 minutes, this antibody was discarded and the plate was washed 8 times with 0.05% Tween20/PBS. Phosphorylated ERK2 was then visualized by peroxidase reaction, and read at 450 nm. FIG. 2A is a table depicting results from MEK1 assays.

[2] = Blood brain barrier penetration; conditions: in vivo
[3] = tested on: BxPC-3 human pancreatic cancer xenografts; assay: In vivo antitumor activity in BxPC-3 xenografts; parameters: species or system mice; conditions: 30 mg/kg i.v., two weekly rounds of q1d×5
Description: A study was carried out to investigate anticancer activity of compound 091 in human BxPC-3 pancreatic cancer xenografts. The compound was evaluated against subcutaneous-implanted BxPC-3 human pancreatic cancer xenografts in female athymic mice.
The human pancreatic cancer cell line, BxPC-3-T1 (no mutations on B-RAF and Ras genes) was transplanted subcutaneously into female nude mice. The experiment consisted of 8 mice per group on the first day of treatment. The compound was administered intravenously for two weekly rounds of five daily injections (q1d×5) with a two-day rest period between the rounds. The compound was administered in a vehicle volume of 0.1 mL/10 g of body weight.
The general health of the mice was monitored daily. Tumor dimensions and body weights were recorded twice a week starting on the first day of treatment. Tumor weights were calculated using the equation (l×w^2)/2, where 1 and w refer to the larger and smaller dimensions collected at each measurement. When the mean tumor volume reached 130 mm^3, vehicle (cremophor:ethanol:5% glucose; 1:1:8) or the test compound (15, 30 mg/kg) was administered to mice (8/group).

Lyn = Lyn (Homo sapiens, UniProt P07948); assay: Kinase inhibition, full range of concentrations; type: biochemical; conditions: 10 μM ATP, duplicate measurements
Description: (§1) In a final reaction volume of 25 μL, each human enzyme was incubated with appropriate buffer. The reaction was initiated by the addition of the MgATP mix with [γ^33P-ATP]. After incubation for 40 minutes at room temperature, the reaction was stopped by the addition of 5 μL of a phosphoric acid solution. All assays were performed at an ATP concentration of 10 μM.
(§2) 10 μL of the reaction was spotted onto a P30 filtermat and washed three times for 5 minutes in a phosphoric acid solution. ^33P transferred to a substrate peptide was then determined by scintillation counting. The results were expressed as a percentage of that in control incubations.
(§3) Furthermore, inhibitory activities of the compounds were confirmed against six of these kinases with a full range of concentrations. Three cytoplasmic Src family kinases were studied: c-Src, Fyn and Lyn. We also studied cytoplasmic Abl kinase and two receptor tyrosine kinases: Flt3, and TrkB. A standard ATP concentration of 10 μM was used in all reactions. All experiments were conducted with duplicate measurements. […] TrkB and members of the Src family were the most sensitive enzymes to Compound 091 inhibition.

TrkB = TrkB (Homo sapiens, UniProt Q16620); assay: Kinase inhibition, full range of concentrations; type: biochemical; conditions: 10 μM ATP, duplicate measurements
Description: as §1, §2, §3

c-Src = c-Src (Homo sapiens, UniProt P12931); assay: Kinase inhibition, full range of concentrations; type: biochemical; conditions: 10 μM ATP, duplicate measurements
Description: as §1, §2, §3

Flt3 = target: T1, Flt3 (Homo sapiens, UniProt P36888); assay: Kinase inhibition, full range of concentrations; type: biochemical; conditions: 10 μM ATP, duplicate measurements
T1 sequence (P36888 27-993): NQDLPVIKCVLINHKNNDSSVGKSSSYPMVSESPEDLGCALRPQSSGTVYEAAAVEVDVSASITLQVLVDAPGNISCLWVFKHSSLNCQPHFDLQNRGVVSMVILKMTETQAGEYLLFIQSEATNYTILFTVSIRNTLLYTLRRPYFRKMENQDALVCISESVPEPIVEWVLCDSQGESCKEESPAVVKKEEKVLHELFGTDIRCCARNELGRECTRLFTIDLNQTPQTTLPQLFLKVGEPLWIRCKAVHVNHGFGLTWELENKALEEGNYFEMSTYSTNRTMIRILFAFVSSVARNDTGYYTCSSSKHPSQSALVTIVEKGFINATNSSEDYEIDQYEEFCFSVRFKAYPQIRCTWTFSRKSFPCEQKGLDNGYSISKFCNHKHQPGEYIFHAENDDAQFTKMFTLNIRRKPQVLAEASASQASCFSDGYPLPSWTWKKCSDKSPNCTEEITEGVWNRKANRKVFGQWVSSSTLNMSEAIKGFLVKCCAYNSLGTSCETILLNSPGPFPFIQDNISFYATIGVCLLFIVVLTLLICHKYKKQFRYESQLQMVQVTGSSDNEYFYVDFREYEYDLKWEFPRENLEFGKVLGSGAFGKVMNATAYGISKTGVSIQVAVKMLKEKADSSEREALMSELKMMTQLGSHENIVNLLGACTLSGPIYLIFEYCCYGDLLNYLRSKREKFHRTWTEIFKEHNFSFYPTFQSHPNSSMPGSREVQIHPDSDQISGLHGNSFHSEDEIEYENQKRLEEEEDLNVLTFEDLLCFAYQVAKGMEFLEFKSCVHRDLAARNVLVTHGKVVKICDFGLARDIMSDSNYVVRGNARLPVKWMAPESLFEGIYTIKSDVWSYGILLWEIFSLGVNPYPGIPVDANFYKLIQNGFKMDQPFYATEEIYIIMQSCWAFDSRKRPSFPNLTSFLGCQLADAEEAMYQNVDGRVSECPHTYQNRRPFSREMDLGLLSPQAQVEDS
Description: as §1, §2, §3

Sequence of MEK1 (Q02750 whole entry): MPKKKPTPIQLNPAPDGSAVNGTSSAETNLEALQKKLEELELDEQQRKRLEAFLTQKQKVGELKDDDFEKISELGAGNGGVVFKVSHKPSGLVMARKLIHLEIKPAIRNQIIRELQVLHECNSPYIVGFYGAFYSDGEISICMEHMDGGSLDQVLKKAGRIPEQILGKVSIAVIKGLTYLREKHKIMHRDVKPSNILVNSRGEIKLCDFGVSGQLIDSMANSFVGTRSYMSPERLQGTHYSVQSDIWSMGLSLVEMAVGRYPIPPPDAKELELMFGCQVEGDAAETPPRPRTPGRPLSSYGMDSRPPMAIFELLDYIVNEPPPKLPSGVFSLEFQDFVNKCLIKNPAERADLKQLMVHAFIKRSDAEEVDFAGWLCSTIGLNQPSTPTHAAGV
Sequence of Lyn (P07948 whole entry): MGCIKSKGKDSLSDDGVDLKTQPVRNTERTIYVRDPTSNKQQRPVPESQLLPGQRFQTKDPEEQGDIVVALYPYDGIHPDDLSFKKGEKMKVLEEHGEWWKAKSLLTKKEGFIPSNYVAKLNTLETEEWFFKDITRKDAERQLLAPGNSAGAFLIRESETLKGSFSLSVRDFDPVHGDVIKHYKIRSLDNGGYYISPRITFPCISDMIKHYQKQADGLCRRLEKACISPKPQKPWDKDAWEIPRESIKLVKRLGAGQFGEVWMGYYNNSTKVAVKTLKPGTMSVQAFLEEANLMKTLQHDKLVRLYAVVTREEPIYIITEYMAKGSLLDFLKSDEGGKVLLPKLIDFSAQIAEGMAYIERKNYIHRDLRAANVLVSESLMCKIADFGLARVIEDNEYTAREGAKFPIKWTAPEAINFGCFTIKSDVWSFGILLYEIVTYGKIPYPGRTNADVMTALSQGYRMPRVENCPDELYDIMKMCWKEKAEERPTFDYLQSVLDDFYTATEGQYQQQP
Sequence of TrkB (Q16620 32-822): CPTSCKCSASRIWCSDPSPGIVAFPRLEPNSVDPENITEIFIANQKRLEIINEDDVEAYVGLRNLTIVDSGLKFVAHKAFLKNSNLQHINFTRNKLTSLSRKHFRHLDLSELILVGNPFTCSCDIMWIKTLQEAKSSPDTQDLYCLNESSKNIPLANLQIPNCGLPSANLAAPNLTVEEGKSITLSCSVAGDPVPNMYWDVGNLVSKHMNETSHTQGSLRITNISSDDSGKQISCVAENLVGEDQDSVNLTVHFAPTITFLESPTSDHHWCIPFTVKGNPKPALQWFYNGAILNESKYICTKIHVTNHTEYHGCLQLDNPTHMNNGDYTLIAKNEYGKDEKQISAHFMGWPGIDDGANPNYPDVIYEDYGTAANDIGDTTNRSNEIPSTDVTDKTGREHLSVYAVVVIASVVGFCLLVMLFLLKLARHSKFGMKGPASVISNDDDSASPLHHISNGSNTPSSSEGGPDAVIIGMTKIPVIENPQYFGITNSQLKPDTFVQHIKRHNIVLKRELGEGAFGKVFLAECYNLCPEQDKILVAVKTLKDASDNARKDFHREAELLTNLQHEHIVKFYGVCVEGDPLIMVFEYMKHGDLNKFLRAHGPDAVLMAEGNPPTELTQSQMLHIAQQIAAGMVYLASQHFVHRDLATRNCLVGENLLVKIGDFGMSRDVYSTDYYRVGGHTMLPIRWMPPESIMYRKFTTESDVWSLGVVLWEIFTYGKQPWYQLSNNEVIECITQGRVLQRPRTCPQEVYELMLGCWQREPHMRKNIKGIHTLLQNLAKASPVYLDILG
Sequence of c-Src (P12931 whole entry): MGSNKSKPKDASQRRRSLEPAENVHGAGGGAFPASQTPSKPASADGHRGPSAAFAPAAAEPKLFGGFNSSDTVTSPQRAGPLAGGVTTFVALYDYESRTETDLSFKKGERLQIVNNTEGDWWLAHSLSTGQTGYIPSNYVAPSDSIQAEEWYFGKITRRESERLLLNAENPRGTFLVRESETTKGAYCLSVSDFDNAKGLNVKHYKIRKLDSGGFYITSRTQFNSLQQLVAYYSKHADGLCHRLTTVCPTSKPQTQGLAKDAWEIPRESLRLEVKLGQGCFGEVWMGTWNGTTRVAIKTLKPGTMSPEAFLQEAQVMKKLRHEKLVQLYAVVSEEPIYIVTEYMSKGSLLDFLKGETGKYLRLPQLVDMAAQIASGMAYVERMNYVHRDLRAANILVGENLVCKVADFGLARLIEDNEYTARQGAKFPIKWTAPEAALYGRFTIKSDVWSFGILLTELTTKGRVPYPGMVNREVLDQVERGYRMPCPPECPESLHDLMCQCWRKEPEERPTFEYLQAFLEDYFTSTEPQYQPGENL

## CNc1cc(O)c2c(c1)/C=C/C[C@H](O)[C@H](O)C(=O)/C=C\[C@@H](C)[C@H](C)OC2=O [Compound 091]
[1]
  cell growth inhibition, concentration range of sensitivity: low-nM or sub-μM
MEK1; 1 μmol/L ATP
  MEK1 inhibitory activity: low nM activity
MEK1; at a low concentration of ATP
  MEK1 inhibitory activity, dependence on ATP: more potent
[2]
  brain/plasma AUC0-t ratio: 3.170
[3]
  tumor regression: 50%
Lyn
  IC50: < 214 nM
TrkB
  IC50: < 214 nM
c-Src
  IC50: < 214 nM
Flt3
  IC50: < 214 nM
